Read-outs that look alike come from different tables or passages of the source.
What was measured:
Type in all cases: cell-based
MKN45 cells = assay: MKN45 cell proliferation assay (Cell-Titer-Glo, 120 hr); details: for MKN45 Cell Prolif. 120 hr YMin (%): minimal percent of DMSO control observed; for EC50: read-out: MKN45 Cell Prolif. 120 hr EC50
Summary of the method: (§1)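 MKN45 (400/well) and MDA-MB-231 (800/well) cells in RPMI with 10% FBS were exposed to 10-point half-log doses from 1 or 10 uM (0.1% DMSO) for 120 h at 37 °C. Viability was read by CellTiter-Glo luminescence. EC50 came from blank-subtracted, %DMSO four-parameter fits, with Ymin-obs as the lowest %DMSO observed.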

MDA-MB-231 cells = assay: MDA-MB-231 cell proliferation assay (Cell-Titer-Glo, 120 hr); details: for EC50: read-out: MDA-MB 231 Cell Prolif. 120 hr EC50; for MDA-MB 231 Cell Prolif. 120 hr YMin (%): minimal percent of DMSO control observed
Summary of the method: as §1

WEE1 = molecular target: T1, WEE1 (Homo sapiens, UniProt P30291+Q96SW2); assay: WEE1-ePL degradation assay (293T-LentiX, InCELL Hunter luminescence, 4 hr); details: for 293T-LentiX WEE1-ePL Degradation 4 hr YMin (%): lower limit of fit, % of DMSO control signal remaining; for DC50: LentiX-HEK293T cells expressing WEE1-ePL, 4 hr incubation, read-out: 293T-LentiX WEE1-ePL Degradation 4 hr EC50
T1 construct: C-terminal ePL-tagged (DiscoverX, Fremont, CA) full-length WEE1 expression construct; expressed in transfected cells; host or cells: LentiX-HEK293T (Invitrogen), lentivirally transduced; the cells also over-express GSPT1-GN
Summary of the method: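 LentiX-HEK293T cells expressing C-terminally ePL-tagged full-length WEE1 plus non-degradable GSPT1-GN (G575N, N-terminal 158 aa truncated). Treated 4 h at 37 °C with a 10-point, 3-fold series from 1 or 10 µM, then read by InCELL Hunter luminescence. EC50 from four-parameter logistic fit, Ymax set by DMSO control.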

[1] = Homo sapiens, MDA-MB-231, 120 h

T1 sequence (P30291 whole entry): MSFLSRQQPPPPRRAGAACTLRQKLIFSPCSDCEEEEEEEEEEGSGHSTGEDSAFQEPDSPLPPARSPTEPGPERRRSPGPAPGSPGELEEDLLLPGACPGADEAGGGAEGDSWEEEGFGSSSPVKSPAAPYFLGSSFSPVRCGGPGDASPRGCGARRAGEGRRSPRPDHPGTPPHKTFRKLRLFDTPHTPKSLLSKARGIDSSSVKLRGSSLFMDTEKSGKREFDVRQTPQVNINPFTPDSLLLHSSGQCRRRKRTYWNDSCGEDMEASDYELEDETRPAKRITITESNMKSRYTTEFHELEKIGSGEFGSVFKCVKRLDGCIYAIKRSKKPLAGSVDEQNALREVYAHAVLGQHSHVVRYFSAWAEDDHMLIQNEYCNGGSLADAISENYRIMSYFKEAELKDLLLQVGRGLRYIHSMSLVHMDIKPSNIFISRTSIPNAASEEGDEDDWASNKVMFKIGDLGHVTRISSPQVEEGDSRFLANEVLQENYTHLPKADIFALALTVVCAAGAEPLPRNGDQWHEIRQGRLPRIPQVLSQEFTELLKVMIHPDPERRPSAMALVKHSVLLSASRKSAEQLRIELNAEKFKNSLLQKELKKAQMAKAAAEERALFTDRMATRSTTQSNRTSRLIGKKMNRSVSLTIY
T1 sequence (Q96SW2 whole entry): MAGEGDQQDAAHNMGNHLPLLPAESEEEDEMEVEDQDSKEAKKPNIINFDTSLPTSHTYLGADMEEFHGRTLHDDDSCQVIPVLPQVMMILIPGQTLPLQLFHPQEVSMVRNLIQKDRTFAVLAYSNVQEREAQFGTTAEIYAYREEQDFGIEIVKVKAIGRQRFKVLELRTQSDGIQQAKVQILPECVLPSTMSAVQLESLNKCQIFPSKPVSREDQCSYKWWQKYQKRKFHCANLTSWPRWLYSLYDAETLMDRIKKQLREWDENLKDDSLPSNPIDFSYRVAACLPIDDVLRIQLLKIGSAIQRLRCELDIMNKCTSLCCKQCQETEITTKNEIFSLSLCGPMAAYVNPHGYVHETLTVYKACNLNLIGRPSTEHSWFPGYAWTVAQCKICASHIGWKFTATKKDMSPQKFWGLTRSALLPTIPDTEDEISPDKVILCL
T1 sequence (Q16531 whole entry partner): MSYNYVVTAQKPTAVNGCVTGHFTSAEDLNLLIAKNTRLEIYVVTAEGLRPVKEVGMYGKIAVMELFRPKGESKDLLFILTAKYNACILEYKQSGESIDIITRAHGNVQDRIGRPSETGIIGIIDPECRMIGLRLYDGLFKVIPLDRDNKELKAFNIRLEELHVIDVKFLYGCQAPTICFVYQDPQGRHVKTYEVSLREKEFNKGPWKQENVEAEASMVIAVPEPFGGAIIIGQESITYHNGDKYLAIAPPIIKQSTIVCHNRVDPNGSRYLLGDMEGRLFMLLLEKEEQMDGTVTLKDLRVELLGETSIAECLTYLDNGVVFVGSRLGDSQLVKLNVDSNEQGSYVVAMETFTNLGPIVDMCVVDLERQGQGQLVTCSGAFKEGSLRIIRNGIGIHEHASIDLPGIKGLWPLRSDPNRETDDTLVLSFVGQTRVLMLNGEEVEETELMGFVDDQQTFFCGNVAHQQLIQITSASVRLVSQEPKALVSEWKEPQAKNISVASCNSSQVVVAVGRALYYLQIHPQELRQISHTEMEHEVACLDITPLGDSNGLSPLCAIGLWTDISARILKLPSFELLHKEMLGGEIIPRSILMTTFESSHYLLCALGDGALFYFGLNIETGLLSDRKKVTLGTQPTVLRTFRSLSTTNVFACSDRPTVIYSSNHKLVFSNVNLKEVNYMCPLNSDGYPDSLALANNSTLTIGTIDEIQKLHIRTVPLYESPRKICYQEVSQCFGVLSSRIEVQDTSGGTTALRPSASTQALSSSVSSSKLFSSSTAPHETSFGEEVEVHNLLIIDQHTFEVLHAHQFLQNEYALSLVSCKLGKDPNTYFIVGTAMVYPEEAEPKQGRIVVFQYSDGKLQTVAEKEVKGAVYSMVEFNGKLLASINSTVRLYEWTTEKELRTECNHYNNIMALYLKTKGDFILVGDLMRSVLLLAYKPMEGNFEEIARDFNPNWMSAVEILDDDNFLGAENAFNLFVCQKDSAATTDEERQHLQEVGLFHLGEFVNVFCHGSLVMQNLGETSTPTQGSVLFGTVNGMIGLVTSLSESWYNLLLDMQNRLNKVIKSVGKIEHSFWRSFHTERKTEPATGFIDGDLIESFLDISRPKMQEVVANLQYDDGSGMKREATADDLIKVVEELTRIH

| Compound | MKN45 Cell Prolif. 120 hr YMin (%) (MKN45 cells) | EC50 (MDA-MB-231 cells; [1]) [nM] | MDA-MB 231 Cell Prolif. 120 hr YMin (%) (MDA-MB-231 cells) | 293T-LentiX WEE1-ePL Degradation 4 hr YMin (%) (WEE1) | EC50 (MKN45 cells; Homo sapiens, MKN-45, 120 h) [nM] | DC50 (WEE1) [nM] | EC50 (MKN45 cells) [nM] | EC50 (MDA-MB-231 cells) [nM] |
| --- | --- | --- | --- | --- | --- | --- | --- | --- |
| COC[C@@H]1CN(Cc2cc(F)c3nc(C45CCC(O)(CC4)CC5)ccc3c2)C[C@H]1Oc1ccc2c(c1)CN([C@H]1CCC(=O)NC1=O)C2=O [Example 55, (3S)-3-(5-{[(3S,4S)-1-[(8-fluoro-2-{4-hydroxybicyclo[2.2.2]octan-1-yl}quinolin-6-yl)methyl]-4-(methoxymethyl)pyrrolidin-3-yl]oxy}-1-oxo-2,3-dihydro-1H-isoindol-2-yl)piperidine-2,6-dione] | 10.9 | 16 | 22.6 | 27.9 | – | – | – | – |
| COC[C@@H]1CN(Cc2cc(F)c3nc(C4CCCO4)ccc3c2)C[C@H]1Oc1ccc2c(c1)CN(C1CCC(=O)NC1=O)C2=O (relative stereo) [Example 65, rel-(3S)-3-(5-(((3S,4S)-1-((8-fluoro-2-(tetrahydrofuran-2-yl)quinolin-6-yl)methyl)-4-(methoxymethyl)pyrrolidin-3-yl)oxy)-1-oxoisoindolin-2-yl)piperidine-2,6-dione] | 8.1 | – | 94.2 | 27.3 | 2 | 1 | – | – |
| COC[C@H]1CN(Cc2cc(F)c3nc(C4CCOCC4)ccc3c2)C[C@H]1Oc1ccc2c(c1)CN([C@H]1CCC(=O)NC1=O)C2=O [Example 83, (3S)-3-(5-{[(3S,4R)-1-{[8-fluoro-2-(oxan-4-yl)quinolin-6-yl]methyl}-4-(methoxymethyl)pyrrolidin-3-yl]oxy}-1-oxo-2,3-dihydro-1H-isoindol-2-yl)piperidine-2,6-dione] | 94.8 | 1120 | 87.9 | 81.6 | 109 | – | – | – |
| COC[C@@H]1CN(Cc2cc(F)c3nc(C4CN(C(C)=O)C4)ccc3c2)C[C@H]1Oc1ccc2c(c1)CN([C@H]1CCC(=O)NC1=O)C2=O [Example 36, (3S)-3-(5-{[(3S,4S)-1-{[2-(1-acetylazetidin-3-yl)-8-fluoroquinolin-6-yl]methyl}-4-(methoxymethyl)pyrrolidin-3-yl]oxy}-1-oxo-2,3-dihydro-1H-isoindol-2-yl)piperidine-2,6-dione] | 10.5 | 141 | 32.4 | 30.2 | 9 | 9 | – | – |
| O=C1CC[C@H](N2Cc3cc(O[C@@H]4CN(Cc5cc(F)c6nc(C7CCOCC7)ccc6c5)C[C@H]4C4CCCC4)ccc3C2=O)C(=O)N1 (relative stereo) [Example 123, (S)-3-(5-(((3S*,4R*)-4-Cyclopentyl-1-((8-fluoro-2-(tetrahydro-2H-pyran-4-yl)-quinolin-6-yl)methyl)pyrrolidin-3-yl)oxy)-1-oxoisoindolin-2-yl)piperidine-2,6-dione] | 80.9 | 3490 | 81.9 | 82.5 | – | – | – | – |
| O=C1CC[C@H](N2Cc3cc(O[C@H]4CCN(Cc5ccc6nc([C@H]7CCO[C@@]8(CCOC8)C7)ccc6c5)C4)ccc3C2=O)C(=O)N1 (relative stereo) [Example 22, rel-(3S)-3-(5-(((3S)-1-((2-(2,6-dioxaspiro[4.5]decan-9-yl)quinolin-6-yl)methyl)pyrrolidin-3-yl)oxy)-1-oxoisoindolin-2-yl)piperidine-2,6-dione] | 10.8 | 39 | 42.5 | 31.3 | 2 | 1 | – | – |
| COC[C@@H]1CN(Cc2cc(F)c3nc(N4CCN(CC(F)(F)F)CC4)ccc3c2)C[C@H]1Oc1ccc2c(c1)CN([C@H]1CCC(=O)NC1=O)C2=O [Example 44, (3S)-3-(5-{[(3S,4S)-1-({8-fluoro-2-[4-(2,2,2-trifluoroethyl)piperazin-1-yl]quinolin-6-yl}methyl)-4-(methoxymethyl)pyrrolidin-3-yl]oxy}-1-oxo-2,3-dihydro-1H-isoindol-2-yl)piperidine-2,6-dione] | 8.9 | 14 | 22.3 | 27.8 | 1 | 1 | – | – |
| COC[C@@H]1CN(Cc2cc(F)c3c(ccn3C(=O)C3CCOCC3)c2)C[C@H]1Oc1ccc2c(c1)CN([C@H]1CCC(=O)NC1=O)C2=O [Example 24, (3S)-3-(5-{[(3S,4S)-1-{[7-fluoro-1-(oxane-4-carbonyl)-1H-indol-5-yl]methyl}-4-(methoxymethyl)pyrrolidin-3-yl]oxy}-1-oxo-2,3-dihydro-1H-isoindol-2-yl)piperidine-2,6-dione] | 49.1 | 68 | 87.7 | 37.7 | 50 | 5 | – | – |
| COC[C@@H]1CN(Cc2ncc3cc(N4CCOCC4)ccc3c2F)C[C@H]1Oc1ccc2c(c1)CN([C@H]1CCC(=O)NC1=O)C2=O [Example 71, (3S)-3-(5-{[(3S,4S)-1-{[4-fluoro-7-(morpholin-4-yl)isoquinolin-3-yl]methyl}-4-(methoxymethyl)pyrrolidin-3-yl]oxy}-1-oxo-2,3-dihydro-1H-isoindol-2-yl)piperidine-2,6-dione] | 8.7 | 5 | 26.6 | 25.3 | 1 | – | – | – |
| Cc1cc([C@H]2CN(Cc3cc(F)c4nc(C5CCOCC5)ccc4c3)C[C@@H]2Oc2ccc3c(c2)CN([C@H]2CCC(=O)NC2=O)C3=O)cc(C)n1 (relative stereo) [Example 147, (S)-3-(5-(((3R*,4S*)-4-(2,6-dimethylpyridin-4-yl)-1-((8-fluoro-2-(tetrahydro-2H-pyran-4-yl)quinolin-6-yl)methyl)pyrrolidin-3-yl)oxy)-1-oxoisoindolin-2-yl)piperidine-2,6-dione] | 92.2 | 443 | 79.7 | 93.2 | 308 | – | – | – |
| COC[C@@H]1CN(Cc2cc(F)c3nc(COC4CCN(C)CC4)ncc3c2)C[C@H]1Oc1ccc2c(c1)CN([C@H]1CCC(=O)NC1=O)C2=O [Example 43, (3S)-3-(5-{[(3S,4S)-1-[(8-fluoro-2-{[(1-methylpiperidin-4-yl)oxy]methyl}quinazolin-6-yl)methyl]-4-(methoxymethyl)pyrrolidin-3-yl]oxy}-1-oxo-2,3-dihydro-1H-isoindol-2-yl)piperidine-2,6-dione] | 10.0 | 520 | 51.3 | 34.3 | 38 | 133 | – | – |
| O=C1CCC(N2C(=O)c3ccc(O[C@H]4CCN(Cc5cc(F)c6nc(C7CCOCC7)ccc6c5)C4)cc3C2=O)C(=O)N1 (single isomer, unassigned) [Example 26, 2-((R*)-2,6-dioxopiperidin-3-yl)-5-(((S)-1-((8-fluoro-2-(tetrahydro-2H-pyran-4-yl)quinolin-6-yl)methyl)pyrrolidin-3-yl)oxy)isoindoline-1,3-dione] | 12.3 | – | 53.8 | 32.8 | – | 8 | 39 | 999 |
| COC[C@@H]1CN(Cc2cc(F)c3cc(N4CCOCC4)cnc3c2)C[C@H]1Oc1ccc2c(c1)CN([C@H]1CCC(=O)NC1=O)C2=O [Example 103, (3S)-3-(5-{[(3S,4S)-1-{[5-fluoro-3-(morpholin-4-yl)quinolin-7-yl]methyl}-4-(methoxymethyl)pyrrolidin-3-yl]oxy}-1-oxo-2,3-dihydro-1H-isoindol-2-yl)piperidine-2,6-dione] | 28.5 | 5 | 82.3 | 32.3 | 29 | 1 | – | – |
| COC[C@@H]1CN(Cc2cc3ccc(C(C)(C)O)cc3cn2)C[C@H]1Oc1ccc2c(c1)CN([C@H]1CCC(=O)NC1=O)C2=O [Example 40, (3S)-3-(5-{[(3S,4S)-1-{[7-(2-hydroxypropan-2-yl)isoquinolin-3-yl]methyl}-4-(methoxymethyl)pyrrolidin-3-yl]oxy}-1-oxo-2,3-dihydro-1H-isoindol-2-yl)piperidine-2,6-dione] | 10.2 | 228 | 1.8 | 30.9 | 5 | 3 | – | – |
